Drawing on publication PMC6287599, “2,6-Bis(2-Benzimidazolyl)Pyridine (BBP) Is a Potent and Selective Inhibitor of Small Conductance Calcium-Activated Potassium (SK) Channels” (Frontiers in Pharmacology, 2018), this text covers IC50 for one compound.

This experiment deals with hSK2 (Homo sapiens, UniProt Q9H2S1). Kind of experiment: Automated patch clamp (QPatch 16), whole cell, stable HEK293 cell line expressing hSK2. It counts as cell-based. To be noted: HEK stable line, 400 nM free intracellular calcium, mean ± SEM, n = 8. The protocol:
Three different stable HEK293 cell lines expressing hSK1, hSK2 or hSK3 (NeuroSearch A/S, Ballerup, Denmark) and a CHO stable cell line expressing hERG (University of Copenhagen, Copenhagen, Denmark) were used for automated patch clamp. These cells were cultivated and prepared as previously described (Skarsfeldt et al., [2016]).
Automated patch clamp (QPatch 16, Sophion, Denmark) on SK-expressing HEK293 cell lines was conducted as previously described (Simó-Vicens et al., [2017b]). Briefly, SK currents were elicited by voltage-ramps starting at −80 mV and finishing at +80 mV from a holding potential of 0 mV. Extracellular solution contained 0.1 mM CaCl2, 3 mM MgCl2, 154 mM KCl, 10 mM HEPES and 10 mM glucose with pH 7.4. Intracellular solution for SK experiments contained 8.106 mM CaCl2 (final free calcium concentration of 400 nM), 1.167 mM MgCl2, 10 mM EGTA, 154 mM KCl, 10 mM HEPES, 31.25/ 10 mM KOH/EGTA and 15 mM KOH with pH 7.2. Automated patch clamp on hERG-expressing CHO cell line was performed also as previously described (Skarsfeldt et al., [2016]).
Individual IC50 values were calculated for each cell with the built-in nonlinear fit log(inhibitor) vs. normalized response equation:
Where Y is the normalized response, from 100, corresponding to current recorded during saline perfusion, down to 0, corresponding to currents recorded in the presence of bicuculline methiodide 100 μM. […]
A general note: In patch-clamp work, channel activity is measured electrically.

One may read the IC50 as the concentration at which inhibition is half-maximal. Consider `c1cc(-c2nc3ccccc3[nH]2)nc(-c2nc3ccccc3[nH]2)c1` [BBP, 2,6-Bis(2-benzimidazolyl)pyridine], for which the IC50 worked out at 400 ± 100 nM.
